Here are results for 1 molecule from patent publication US20160223526A1, “METHOD OF SCREENING FOR COMPOUNDS USEFUL IN THE TREATMENT OF HUNTINGTON DISEASE” (INNOVATIVE CONCEPTS IN DRUG DEVELOPMENT, priority 2013, published 2016).

The test deals with Patient-derived fibroblasts, cells from HD patient (ID 090401). Kind of test: Reversal of the HD-signature (mitochondrial behaviour variables) by dynamic imaging of patient-derived fibroblasts. In kind it is cell-based, human. The conditions noted are these: for recovery (weighted overall rescue of the diseased phenotype, discriminant equation on 7 HD-signature variables): 30 min incubation, 0% = diseased status, 100% = healthy status. The protocol:
Fibroblasts were labelled with MitoTracker green, a cell-permeant mitochondrial dye not sensitive to mitochondrial membrane potential, for 30 minutes. Images were recorded from an epifluorescence microscope continuously for 6 minutes. Cells were kept at 37° C. for the duration of the image capture. For each experimental condition, 3 to 15 cells were recorded per well from three independent plates, i.e. up to 6000 individual mitochondria. The maximum duration for data acquisition was 30 minutes (i.e. five cells observed during 6 min). Images were captured with a Zeiss Axioplan II microscope along three dimensions in space and in time.
Patient-derived fibroblasts were cultured in DMEM containing 15% fetal calf serum. and 0.5% DMSO, a concentration known to be inert on the mitochondrial behaviour.
Cells were incubated with different doses of resveratrol or cyclosporine A (CSA) diluted in DMSO or with the vehicle only (DMSO) for 30 minutes and observed through time-lapse video-microscopy for another 30 minutes during dynamic image capture.
Resveratrol and CSA were tested at 4 doses spanning […] (10, 1, 0.1 and 0.05 μM).
The negative control was cells from HD patient (ID 090401) with the vehicle only and the positive control was cells from healthy patient (ID 071201) with the vehicle only.
The raw data obtained for each mitochondrion were expressed as a ratio (%) according to the following formula: DATA=(NC−Var)*100/(NC−PC) (NC=average value of the negative control; PC=average value of the positive control; Var=value of the variable).
Effects are expressed as a percent of control values as defined above, i.e. % of phenotypic rescue. 0% represents the diseased status while 100% represents the healthy status.
To express the weighted effect of the variables on the overall rescue, a discriminant equation was applied.

For `Oc1ccc(C=Cc2cc(O)cc(O)c2)cc1` [Resveratrol], the “recovery (weighted overall rescue of the diseased phenotype, discriminant equation on 7 HD-signature variables)” value (0.05 μM) is on record as “detrimental effect with a mild worsening of the diseased status” and the “recovery (weighted overall rescue of the diseased phenotype, discriminant equation on 7 HD-signature variables)” value (10 μM) is reported as “exceeds the healthy status”. Moreover, the “overall effect / activity profile over the dose range (weighted dose-response on disease-modification)” value (doses 10, 1, 0.1 and 0.05 μM) is “disease-modifying capabilities and rescue of the disease status except at low dose”.
